Measured values taken from patent US12152038B2, “Vasopressin receptor antagonists and products and methods related thereto” (Neumora Therapeutics, Inc., priority 2017, dated 2024).
Like-named read-outs stand apart in the source and are kept apart here.

Experiments:
[1] = biological target: T1, human Oxytocin Receptor (hOTR) (Homo sapiens, UniProt P30559); experiment: Oxytocin receptor (OTR) antagonist assay (FLIPR calcium, CHEM-1-hOTR cells); assay type: cell-based
T1 construct: host or cells: CHEM-1 (ready-to-assay frozen cells)
T1 sequence (P30559 1-389): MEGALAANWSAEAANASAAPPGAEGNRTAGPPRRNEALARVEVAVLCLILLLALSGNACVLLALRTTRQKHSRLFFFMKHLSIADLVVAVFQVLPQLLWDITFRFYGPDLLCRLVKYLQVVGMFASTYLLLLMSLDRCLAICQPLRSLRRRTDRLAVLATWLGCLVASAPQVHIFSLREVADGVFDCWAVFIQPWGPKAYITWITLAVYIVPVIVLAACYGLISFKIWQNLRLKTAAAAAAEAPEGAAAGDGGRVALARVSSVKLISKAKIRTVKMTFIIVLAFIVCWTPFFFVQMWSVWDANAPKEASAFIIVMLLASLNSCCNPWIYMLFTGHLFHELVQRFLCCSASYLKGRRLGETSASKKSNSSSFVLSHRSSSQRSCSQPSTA
How it was run: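 CHEM-1 cells expressing human OTR were loaded with Calcium-6 dye in HBSS/20 mM HEPES and preincubated with compound (10-point, 1:3 series) for 15 min at 37° C. Cells were then challenged with oxytocin at its daily-determined EC80. Calcium fluorescence was read on FLIPR for 3 min after each addition.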

MDR1 (P-glycoprotein) = biological target: T2, MDR1 (P-glycoprotein) (Homo sapiens, UniProt P08183); experiment: MDR1-MDCK permeability and efflux assay (Papp, efflux ratio, effective efflux ratio); assay type: in vitro ADME; details: dog; for Papp A→B at 1 h, 10 μM: pH 7.4, read-out: Papp AB MDR1
T2 construct: host or cells: MDCK (MDR1-MDCK; wild-type MDCK as comparator)
How it was run: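 Bidirectional transport measured over 1 h at 37 °C with 10 μM test compound (0.1% DMSO) in pH 7.4 HEPES-buffered HBSS across MDR1-transfected and wild-type MDCK monolayers, analysed by LC-MS/MS. Efflux ratio is B>A over A>B Papp; effective efflux ratio divides MDR1-MDCK ER by wild-type ER.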

[2] = MDCK-MDR1, pH 7.4, ER(MDR1-MDCK)/ER(wild-type MDCK), read-out: EER (Effective Efflux Ratio)
[3] = MDCK-MDR1, pH 7.4, Papp B>A/Papp A>B, MDR1-MDCK cells, read-out: ER MDR1 (Efflux Ratio)

T2 sequence (P08183 whole entry): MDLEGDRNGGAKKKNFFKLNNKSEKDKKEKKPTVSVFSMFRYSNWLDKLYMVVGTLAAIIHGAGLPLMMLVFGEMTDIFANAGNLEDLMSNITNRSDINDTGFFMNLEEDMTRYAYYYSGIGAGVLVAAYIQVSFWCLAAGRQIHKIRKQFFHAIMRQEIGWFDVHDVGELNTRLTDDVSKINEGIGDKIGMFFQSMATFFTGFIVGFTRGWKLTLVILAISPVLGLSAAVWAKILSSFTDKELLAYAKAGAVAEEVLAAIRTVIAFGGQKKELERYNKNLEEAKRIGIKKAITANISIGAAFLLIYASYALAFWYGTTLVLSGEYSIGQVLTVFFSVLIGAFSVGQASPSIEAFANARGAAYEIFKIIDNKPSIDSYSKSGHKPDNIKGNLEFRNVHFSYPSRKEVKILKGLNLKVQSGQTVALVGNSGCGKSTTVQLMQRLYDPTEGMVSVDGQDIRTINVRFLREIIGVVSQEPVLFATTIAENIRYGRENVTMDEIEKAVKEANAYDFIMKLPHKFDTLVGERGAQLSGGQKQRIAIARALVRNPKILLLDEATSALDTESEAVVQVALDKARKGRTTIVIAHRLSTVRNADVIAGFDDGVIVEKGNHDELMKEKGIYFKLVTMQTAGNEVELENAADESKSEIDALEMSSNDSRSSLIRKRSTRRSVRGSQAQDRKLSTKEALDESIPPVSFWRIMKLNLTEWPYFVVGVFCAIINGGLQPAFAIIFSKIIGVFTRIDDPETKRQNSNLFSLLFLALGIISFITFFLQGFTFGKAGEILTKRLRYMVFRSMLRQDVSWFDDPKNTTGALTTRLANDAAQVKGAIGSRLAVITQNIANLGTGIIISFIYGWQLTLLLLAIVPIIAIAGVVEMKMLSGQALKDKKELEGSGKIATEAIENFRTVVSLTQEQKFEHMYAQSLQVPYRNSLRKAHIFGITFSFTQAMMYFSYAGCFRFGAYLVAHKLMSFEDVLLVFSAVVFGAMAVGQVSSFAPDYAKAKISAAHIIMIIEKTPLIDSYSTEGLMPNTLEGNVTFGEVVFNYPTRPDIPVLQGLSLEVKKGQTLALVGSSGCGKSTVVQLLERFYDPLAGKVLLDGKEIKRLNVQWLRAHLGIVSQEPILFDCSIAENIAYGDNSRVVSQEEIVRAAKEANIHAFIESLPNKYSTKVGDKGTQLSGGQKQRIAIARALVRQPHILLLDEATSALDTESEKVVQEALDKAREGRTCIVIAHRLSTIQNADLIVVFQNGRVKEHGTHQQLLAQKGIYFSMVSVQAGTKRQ

| SMILES | IC50 [1] [nM] | efflux ratio at 1 h, 10 μM (MDR1 (P-glycoprotein); [2]) | efflux ratio at 1 h, 10 μM (MDR1 (P-glycoprotein); [3]) | Papp A→B at 1 h, 10 μM (MDR1 (P-glycoprotein); MDR1-MDCK cells) [×10⁻⁶ cm/s] |
| --- | --- | --- | --- | --- |
| O=C(N1CC2(C1)CN(c1ccc(F)cn1)C2)N1CCOCc2cc(Cl)ccc21 [8-4] | ≥ 1000 | 1 to 2 | 1 to 2 | > 20 |
| O=C(N1CC2(C1)CN(c1ccccn1)C2)N1CCOCc2cc(Cl)ccc21 [8-12] | 500 to 1000 | 2 to 3 | 2 to 3 | > 20 |
| O=C(N1CC2(C1)CN(c1ccc(F)cn1)C2)N1CCOc2cc(Cl)ccc21 [9-7] | ≥ 1000 | 1 to 2 | < 1 | > 20 |
| O=C(N1CC2(C1)CN(c1ccc(F)cn1)C2)N1CCC(O)c2cc(Cl)ccc21 (stereo not shown) [13-1, (6-chloro-4-hydroxy-3,4-dihydroquinolin-1(2H)-yl)(6-(5-fluoropyridin-2-yl)-2,6-diazaspiro[3.3]heptan-2-yl)methanone] | ≥ 1000 | > 3 | > 3 | > 20 |
| CC1COc2cc(Cl)ccc2N1C(=O)N1CC2(C1)CN(c1noc3cccnc13)C2 (stereo not shown) [18-3] | ≥ 1000 | < 1 | < 1 | > 20 |
| COc1ccnc(N2CC3(CN(C(=O)N4c5ccc(Cl)cc5OCC4C)C3)C2)c1 (stereo not shown) [20-8] | 100 to 500 | < 1 | < 1 | > 20 |
| COc1ccnc(N2CC3(CN(C(=O)N4c5ccc(Cl)cc5OCC4C)C3)C2)n1 (stereo not shown) [20-9] | 100 to 500 | < 1 | < 1 | > 20 |
| Cc1nccnc1N1CC2(CN(C(=O)N3c4ccc(Cl)cc4OCC3C)C2)C1 (stereo not shown) [20-10] | 100 to 500 | < 1 | < 1 | > 20 |
| Cc1ccnc(N2CC3(CN(C(=O)N4c5ccc(Cl)cc5OCC4C)C3)C2)c1 (stereo not shown) [20-11] | 100 to 500 | < 1 | < 1 | > 20 |

Results, then the molecule that gave them:

| IC50 [1] [nM] | efflux ratio at 1 h, 10 μM (MDR1 (P-glycoprotein); [2]) | efflux ratio at 1 h, 10 μM (MDR1 (P-glycoprotein); [3]) | Papp A→B at 1 h, 10 μM (MDR1 (P-glycoprotein); MDR1-MDCK cells) [×10⁻⁶ cm/s] | SMILES |
| --- | --- | --- | --- | --- |
| < 100 | 1 to 2 | 1 to 2 | > 20 | Cc1ccnc(N2CC3(CN(C(=O)N4c5ccc(Cl)cc5OCC4C)C3)C2)n1 (single isomer, unassigned) [20-12-B] |
| 100 to 500 | < 1 | < 1 | > 20 | CC1COc2cc(Cl)c(F)cc2N1C(=O)N1CC2(C1)CN(c1cccnn1)C2 (stereo not shown) [19-4] |
| 100 to 500 | 1 to 2 | 1 to 2 | > 20 | CC1COc2cc(F)c(F)cc2N1C(=O)N1CC2(C1)CN(c1ccc(F)cn1)C2 (stereo not shown) [19-5] |
| 100 to 500 | 1 to 2 | 1 to 2 | > 20 | Cc1cncc(N2CC3(CN(C(=O)N4c5ccc(F)cc5OCC4C)C3)C2)n1 (stereo not shown) [20-2] |
